These results are taken from publication PMC8551653, “Bisphenol A derivatives act as novel coactivator-binding inhibitors for estrogen receptor β” (The Journal of Biological Chemistry, 2021).

One data set concerns ERα. Set-up: method as in PMID 31289329. As to conditions: competitive binding, [3H] 17β-estradiol as radioligand; mean ± SD; read-out: Binding affinity (IC50, nM) ERα; cited from earlier work.
The target in data set [1] is T1, ERβ (Homo sapiens, UniProt Q92731). Description: Luciferase reporter gene assay in HeLa cells, antagonistic activity against 10 nM E2. Format: cell-based. Set-up: expressed in transfected cells; host or cells: HeLa. The conditions noted are these: for transcriptional activity (%) at most effective inhibitory concentration, ratio to that of 10 nM E2: HeLa cells, in the presence of 10 nM E2, 0.1, 1, 10 µM tested; for ERβ antagonist activity (in words): against 10 nM E2-induced ERβ activation, 100 nM, 1 μM, 10 μM; for suppression of E2-induced activation: at the 10 μM concentration, 10 nM E2. The method, then:
(§1) HeLa cells were maintained in Eagle's minimum essential medium (Nissui Pharmaceutical Co, Ltd) supplemented with DCC-treated fetal bovine serum (10%, v/v) at 37 °C under 5% CO2. […] After a 24-h incubation, luciferase activity was measured using the ONE-Glo Luciferase Assay System (Promega Co) on an EnSpire multimode plate reader (PerkinElmer, Inc).
Target sequence in this assay (Q92731 whole entry): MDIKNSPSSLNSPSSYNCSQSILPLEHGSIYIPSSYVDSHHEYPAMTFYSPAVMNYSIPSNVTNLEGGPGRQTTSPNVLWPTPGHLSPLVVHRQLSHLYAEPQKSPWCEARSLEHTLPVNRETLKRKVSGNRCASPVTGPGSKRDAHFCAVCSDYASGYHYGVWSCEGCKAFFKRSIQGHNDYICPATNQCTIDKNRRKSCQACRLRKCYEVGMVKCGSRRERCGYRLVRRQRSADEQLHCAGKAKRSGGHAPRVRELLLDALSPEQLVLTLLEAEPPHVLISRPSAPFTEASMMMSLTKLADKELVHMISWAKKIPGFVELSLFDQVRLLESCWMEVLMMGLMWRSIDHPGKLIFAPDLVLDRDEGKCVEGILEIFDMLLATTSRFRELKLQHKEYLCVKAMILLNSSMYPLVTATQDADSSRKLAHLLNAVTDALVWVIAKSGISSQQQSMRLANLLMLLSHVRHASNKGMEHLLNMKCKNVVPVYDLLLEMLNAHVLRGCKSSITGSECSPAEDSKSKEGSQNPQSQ

The target of data set [2] is T1, ERβ. Description: Radioligand competitive binding assay with [3H]E2 for ERβ (GST-ERβ-LBD). Set-up: made in house; host or cells: Escherichia coli BL21α. As to conditions: for preference of binding ERβ over ERα: ERβ versus ERα IC50. The procedure:
Human ERβ cDNA was obtained from OriGene Technologies. The cDNA of ERβ-LBD was amplified using PCR and subcloned into a pGEX-6p-1 expression vector. The expression of GST-fused ERβ-LBD was induced by 1 mM IPTG in Escherichia coli BL21α at 16 °C for overnight. The resulting crude protein was affinity-purified using Glutathione-Sepharose 4B (Cytiva), followed by gel filtration using a Sephadex G-10 column (Cytiva).
Target sequence in this assay (Q92731 263-530): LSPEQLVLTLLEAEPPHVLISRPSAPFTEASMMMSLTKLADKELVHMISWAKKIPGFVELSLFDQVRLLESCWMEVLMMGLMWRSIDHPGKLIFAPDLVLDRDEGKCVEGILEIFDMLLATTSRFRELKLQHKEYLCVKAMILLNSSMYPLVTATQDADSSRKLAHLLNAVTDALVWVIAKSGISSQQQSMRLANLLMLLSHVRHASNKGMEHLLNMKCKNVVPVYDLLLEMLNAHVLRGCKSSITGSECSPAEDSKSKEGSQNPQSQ

The target of data set [3] is T1, ERβ. Description: Luciferase reporter gene assay in HeLa cells, agonistic activity. The data set is classed as cell-based. Also on record: expressed in transfected cells; host or cells: HeLa. The conditions noted are these: for maximum fold induction (agonistic activity on ERβ) / ERβ agonist activity (in words): HeLa cells; for maximum fold induction (agonistic activity on ERβ): ERE luciferase reporter, tested up to 10 µM; for ERβ agonist activity (in words): WT ERβ. The method, then: as §1
Target sequence in this assay (Q92731 whole entry): as the sequence (Q92731 whole entry) above

Data set [4] deals with T1, ERβ. Description: Competitive binding assay with [3H]4OHT for WT ERβ. Also on record: made in house; host or cells: Escherichia coli BL21α. As to conditions: for shape of competitive binding curve, WT ERβ: [3H]4OHT radioligand. The procedure: (§2) After successive incubation with 100 μl of 0.4% dextran-coated charcoal (DCC) (Sigma-Aldrich) in PBS (pH 7.4) on ice for 10 min, free radioligands bound to DCC were removed using a vacuum filtration system with a 96-well filtration plate (MultiScreenHTS HV, […], Merck KGaA) for the bound/free separation. The radioactivity of each eluent was measured using a liquid scintillation counter (LS6500; Beckman Coulter) and Clear-sol I (Nacalai Tesque Inc). […] Each compound was dissolved in dimethyl sulfoxide to prepare a 1.0 mM stock solution and further diluted to prepare serial dilutions (10^−12 M to 10^−5 M) in the binding buffer. […] Bound/free separation was performed as described above, and the radioactivity was determined using a MicroBeta microplate counter (PerkinElmer Inc). The IC50 value of each test compound was calculated from the dose–response curves generated via nonlinear regression analysis using Prism software (GraphPad Software Inc).
Target sequence in this assay (Q92731 263-530): as the sequence (Q92731 263-530) above

The target in a further data set is ERβ(W335A) (Homo sapiens, UniProt Q92731, W335A). Description: Competitive binding assay for ERβ(W335A). Set-up: made in house; host or cells: Escherichia coli BL21α (described for the wild-type LBD). The conditions noted are these: Fig. 4B. The method, then: as §2
Sequence of ERβ(W335A) (Q92731 263-530 W335A): as the sequence (Q92731 263-530) above, with W73A counted along it
Setting [5] is: competitive binding, [3H] 17β-estradiol as radioligand, mean ± SD, read-out: Binding affinity (IC50, nM) ERβ.

Like-named read-outs stand apart in the source and are kept apart here.

For the compound `CC(C)(c1ccc(O)cc1)c1ccc(C(C)(C)c2ccc(O)cc2)cc1` [Compound 16, 4,4'-(1,4-phenylenebis(propane-2,2-diyl))diphenol], the IC50 with ERα was 176 ± 35 nM. Also, at ERβ [1], the “transcriptional activity (%) at most effective inhibitory concentration, ratio to that of 10 nM E2” value is 11.8% and the “ERβ antagonist activity (in words)” value is “antagonistic activity”. Moreover, at ERβ [2], the IC50 is 607 ± 28 nM. Besides, at ERβ [3], the “maximum fold induction (agonistic activity on ERβ)” value (“maximum fold induction” below) is recorded as 1.44 and the “ERβ agonist activity (in words)” value was “no agonist activity”.

On to `C[C@]12CC[C@@H]3c4ccc(O)cc4CC[C@H]3[C@@H]1CC[C@@H]2O` [Compound E2, Estradiol, reference compound], for which the IC50 with ERα was 0.88 ± 0.13 nM.

Take `Oc1ccc(C(c2ccc(O)cc2)(C(F)(F)F)C(F)(F)F)cc1` [Compound 4, 4,4'-(perfluoropropane-2,2-diyl)diphenol]: the “ERβ antagonist activity (in words)” value at ERβ [1] is reported as “antagonistic activities”. The “preference of binding ERβ over ERα” value on ERβ [2] is on record as “three times stronger binding to ERβ than ERα”. Besides, at ERβ [4], the “shape of competitive binding curve, WT ERβ” value was “biphasic binding curve”. Further, at ERβ [4] (compared with BPA), the “increase of ERβ binding compared with BPA” value is recorded as ~50 fold. Also, on ERβ [3], the “ERβ agonist activity (in words)” value is on record as “weak transcriptional activity”. In addition, the “shape of competitive binding curve, ERβ(W335A)” value on ERβ(W335A) was “biphasic binding of BPC and BPAF was lost”.

In the case of `CC(C)(c1ccc(O)cc1)c1cccc(C(C)(C)c2ccc(O)cc2)c1` [Compound 10, 4,4'-(1,3-phenylenebis(propane-2,2-diyl))diphenol], the IC50 with ERα was 56.8 ± 11.7 nM. On ERβ [1], the “transcriptional activity (%) at most effective inhibitory concentration, ratio to that of 10 nM E2” value came out at 5.4% and the “ERβ antagonist activity (in words)” value was “antagonistic activity”. The compound further gave an IC50 at ERβ [2] of 148 ± 80 nM. In addition, on ERβ [3], the “maximum fold induction” value is given as 1.12 and the “ERβ agonist activity (in words)” value was “no agonist activity”.

With `Nc1ccc(Oc2ccc(C(c3ccc(Oc4ccc(N)cc4)cc3)(C(F)(F)F)C(F)(F)F)cc2)cc1` [Compound 17, 2,2-Bis[4-(4-aminophenoxy)phenyl]hexafluoropropane], the IC50 in the data set on ERα was 1030 ± 375 nM; on ERβ [2] it was 609 ± 81 nM. Also, the “transcriptional activity (%) at most effective inhibitory concentration, ratio to that of 10 nM E2” value on ERβ [1] is 99.1%. Besides, the “maximum fold induction” value at ERβ [3] was determined as 1.46.

In the case of `Nc1cc(C(c2ccc(O)c(N)c2)(C(F)(F)F)C(F)(F)F)ccc1O` [Compound 13, 2,2-Bis(3-amino-4-hydroxyphenyl)hexafluoropropane], the IC50 was 334 ± 112 nM with ERα and 224 ± 113 nM on ERβ [2] (setting [5]). Besides, the “transcriptional activity (%) at most effective inhibitory concentration, ratio to that of 10 nM E2” value at ERβ [1] was determined as 86.7%. In addition, the “maximum fold induction” value at ERβ [3] was determined as 1.67.

For `Oc1ccc(C(c2ccc(O)cc2)C(Cl)(Cl)Cl)cc1` [Compound 3, 2,2-bis(p-hydroxyphenyl)-1,1,1-trichloroethane], the “ERβ antagonist activity (in words)” value at ERβ [1] is recorded as “antagonistic activities”. In addition, on ERβ [2], the “preference of binding ERβ over ERα” value is “three times stronger binding to ERβ than ERα”.

In the case of `CCCCC(CC)C(c1ccc(O)cc1)c1ccc(O)cc1` (stereo not shown) [Compound 6, 4,4′-(2-Ethylhexylidene)bisphenol], in the data set with ERα, the 50% inhibitory concentration (IC50) is 18.5 ± 6.7 nM. For the same compound, at ERβ [1], the “transcriptional activity (%) at most effective inhibitory concentration, ratio to that of 10 nM E2” value worked out at 11.1% and the “suppression of E2-induced activation” value is given as 90%. The IC50 on ERβ [2] (setting [5]) was 25.9 ± 8.5 nM. In addition, on ERβ [3], the “maximum fold induction” value was found to be 1.59 and the “ERβ agonist activity (in words)” value is on record as “no agonist activity”.

Take `CC/C(=C(\c1ccc(O)cc1)c1ccc(OCCN(C)C)cc1)c1ccccc1` [Compound 4OHT, 4-Hydroxytamoxifen, reference compound]: the IC50 with ERα is […]. Moreover, on ERβ [4], the “shape of competitive binding curve, WT ERβ” value is on record as “biphasic curve”.

As for `Cc1cc(C(c2ccccc2O)c2cc(C)c(O)c(C)c2C)c(C)c(C)c1O` [Compound 7, 4,4′-(2-Hydroxybenzylidene)-bis(2,3,6-trimethylphenol)], in the data set with ERα, the IC50 is 12.3 ± 7.3 nM. For the same compound, on ERβ [1], the “transcriptional activity (%) at most effective inhibitory concentration, ratio to that of 10 nM E2” value stood at 6.6% and the “suppression of E2-induced activation” value is 90%. Besides, the IC50 on ERβ [2] (setting [5]) was 41.5 ± 2 nM. For the same compound, on ERβ [3], the “maximum fold induction” value was 1.45 and the “ERβ agonist activity (in words)” value is recorded as “no agonist activity”.

For the compound `CCC(C)(c1ccc(O)cc1)c1ccc(O)cc1` [Compound 8, 4,4'-(butane-2,2-diyl)diphenol], the IC50 with ERα was 195 ± 44 nM; on ERβ [2], 79.8 ± 12.6 nM. At ERβ [1], the “transcriptional activity (%) at most effective inhibitory concentration, ratio to that of 10 nM E2” value stood at 28.9%. In addition, the “ERβ antagonist activity (in words)” value at ERβ [1] is “weak antagonist activity”. Besides, the “inhibition of BPA-induced activation” value on ERβ [1] (as worded) stood at 50%. Moreover, the “maximum fold induction” value on ERβ [3] turned out to be 5.13. The “transcriptional activity as % of BPA-induced transcriptional activity” value on ERβ [3] (at the highest concentration of 10 μM) is ~50%.

As to `Oc1ccc(C2(c3ccc(O)cc3)CCCCC2)cc1` [Compound 5, 4,4'-(cyclohexane-1,1-diyl)diphenol], the “transcriptional activity (%) at most effective inhibitory concentration, ratio to that of 10 nM E2” value on ERβ [1] is on record as 19.9%. In addition, at ERβ [2], the IC50 worked out at 21.6 ± 1.9 nM. For the same compound, the “maximum fold induction” value at ERβ [3] is listed as 3.29.

In the case of `Cc1cc(C2(c3ccc(O)c(C)c3)CCCCC2)ccc1O` [Compound 9, 1,1-Bis(4-hydroxy-3-methylphenyl)cyclohexane], the IC50 in the data set on ERα was 38.6 ± 7.2 nM; at ERβ [2] (setting [5]), 132 ± 6.5 nM. Moreover, at ERβ [1], the “transcriptional activity (%) at most effective inhibitory concentration, ratio to that of 10 nM E2” value came out at 17.0%. In addition, on ERβ [3], the “maximum fold induction” value amounted to 2.27.

Turning to `Cc1cc(C2(c3ccc(O)c(C)c3)c3ccccc3-c3ccccc32)ccc1O` [Compound 15, 9,9-Bis(4-hydroxy-3-methylphenyl)fluorene], the “ERβ antagonist activity (in words)” value at ERβ [1] is on record as “weak antagonist”. The compound also gave an IC50 on ERβ [2] of 405 ± 108 nM.

Regarding `CC(C)(c1ccc(O)cc1)c1ccc(C(C)(c2ccc(O)cc2)c2ccc(O)cc2)cc1` [Compound 12, α, α, α′-Tris(4-hydroxyphenyl)-1-ethyl-4-isopropylbenzene], in the data set with ERα, the half-inhibitory concentration (IC50) is 61.7 ± 10.4 nM. Also, at ERβ [1], the “transcriptional activity (%) at most effective inhibitory concentration, ratio to that of 10 nM E2” value is 7.7% and the “ERβ antagonist activity (in words)” value was “antagonistic activity”. Besides, the IC50 at ERβ [2] stood at 212 ± 36 nM. At ERβ [3], the “maximum fold induction” value stood at 1.02 and the “ERβ agonist activity (in words)” value is on record as “no agonist activity”.

In the case of `CC(c1ccccc1)(c1ccc(O)cc1)c1ccc(O)cc1` [Compound 11, 4,4'-(1-phenylethane-1,1-diyl)diphenol], in the data set with ERα, the IC50 was 259 ± 41 nM.

Consider `Oc1ccc(C2(c3ccc(O)cc3)c3ccccc3-c3ccccc32)cc1` [Compound 14, 9,9-Bis(4-hydroxyphenyl)fluorene], for which the figures for the 50% inhibitory concentration (IC50) with ERα and on ERβ [2] were 2230 ± 202 nM and 325 ± 60 nM, respectively. Further, the “transcriptional activity (%) at most effective inhibitory concentration, ratio to that of 10 nM E2” value on ERβ [1] was 76.9%. The “maximum fold induction” value at ERβ [3] was 2.47.

Turning to `Cc1cc(C(C)(C)c2ccc(C(C)(C)c3cc(C)c(O)c(C)c3)cc2)cc(C)c1O` [Compound 20, α,α′-Bis(4-hydroxy-3,5-dimethylphenyl)-1,4-diisopropylbenzene], the IC50 in the data set with ERα is 733 ± 628 nM. Further, at ERβ [1], the “transcriptional activity (%) at most effective inhibitory concentration, ratio to that of 10 nM E2” value came to 6.4% and the “ERβ antagonist activity (in words)” value is “antagonistic activity”. In addition, the IC50 on ERβ [2] (setting [5]) was > 10000 nM. In addition, on ERβ [3], the “maximum fold induction” value came out at 0.99 and the “ERβ agonist activity (in words)” value is given as “no agonist activity”.
